Structures are written as SMILES. Read-outs that look alike come from different tables or passages of the source.

In data set [1] the test system is ConA-induced T murine splenic lymphocytes. Description: ConA-induced T-cell (splenic lymphocyte) proliferation, CCK-8. Format: cell-based, BALB/c mice. The conditions noted are these: Mus musculus, 48 h, read-out: IC50 ConA-Induced T-Cell Proliferation. How it is done:
(§1) The isolated compounds (1–8) were evaluated for their immunosuppressive activities against the proliferation of ConA-induced T and LPS-induced B murine splenic lymphocytes, according to previously described protocols. […] The cytotoxicity of immunosuppressive Compounds 2 and 4–6 was tested in murine splenocyte cultures for 72 h using the tetrazolium salt-based CCK-8 assay. […] Thus, we selected this particular cytochalasin for the mechanism of action studies.
(§2) Spleen cells were collected from BALB/c mice under aseptic conditions, plated in a 96-well plate at a density of 1.5 × 10^6 cells/well and activated by Con A (5 μg/mL) or LPS (10 μg/mL) in the presence of various concentrations of compounds or cyclosporine A (CsA) at 37 °C and 5% CO2 for 48 h. Then, 20 μL CCK-8 was added to each well, 4 h before the end of the incubation. Absorbance at OD450 was measured on an ELISA reader, and the IC50 value was calculated from the correlation curve between the compound concentration and the OD450.

Data set [2] deals with LPS-induced B murine splenic lymphocytes. The data set is described as follows: LPS-induced B-cell (splenic lymphocyte) proliferation, CCK-8. The conditions noted are these: Mus musculus, 48 h, read-out: IC50 LPS-Induced B-Cell Proliferation. In kind it is cell-based, BALB/c mice. As for the experimental part: as §1, §2
Data set [3] in a line: Cytotoxicity / cell viability in normal splenocytes, CCK-8, 72 h. In kind it is cell-based, BALB/c mice. The conditions noted are these: BALB/c, mouse, mean ± SD (n = 7), read-out: Cytotoxicity IC50, murine splenocytes. As for the experimental part:
as §1
(§3) Cell viability was evaluated using the CCK-8 method. Spleen cells were plated in a 96-well plate at a density of 1.5 × 10^6 cells/well. Then, the cells were incubated with various concentrations of compounds or 0.1% DMSO at 37 °C and 5% CO2 for 72 h. Proliferation was measured using the CCK-8 assay, as described above. Cyclosporin A (CsA) and cytochalasin D were used as positive controls.

For another data set, the target named is calcineurin (CN) (Homo sapiens, UniProt P63098+Q08209). The data set is described as follows: CN phosphatase assay (p-NPP substrate, spectrophotometric). Format: biochemical. The conditions noted are these: 20 mM p-NPP substrate, pH 7.4; read-out: IC50 calcineurin (CN) inhibition. As for the experimental part: A spectrophotometric assay was used to determine the activities of CN with 20 mM p-nitrophenyl phosphate (p-NPP) as the substrate in 1 mM CaCl2, 0.5 mM MnCl2, 2 mM CaM, 2 mM CNB, 1 mM DTT, 0.1 mg/mL bovine serum albumin (BSA), and 50 mM Tris-HCl (pH 7.4) at 4 °C. The reaction was initiated by the addition of CNA, various concentrations of compounds (6.25, 12.5, 25, 50 or 100 μM) were added, and the solution was preincubated for 10 min at 4 °C. The OD410 value was measured, and the inhibitory concentration (IC50) was calculated. DMSO (2%) was used as a vehicle control. CsA was used as a positive control.

The test system of the next data set is IL-2. Description: IL-2 ELISA of culture supernatants of ConA-stimulated splenocytes. Format: cell-based, BALB/c mice. As for the experimental part:
(§4) The effect of 2 on ConA-stimulated NFAT1 and NFAT-P expression was determined by Western blotting. […] In contrast, in the ConA-stimulated cells in the absence of 2, the dephosphorylated form of NFAT1 was detected, as well as the phosphorylated form. […] After 48 h of stimulation with 5 μg/mL Con A, the fluorescent NFAT1 translocated to the nucleus. […] In addition, 2 formed hydrophobic interactions with residues ILE-436, ILE-474, ARG-477, VAL-490, and VAL-498 and intermolecular interactions with residues THR-126, GLN-127, ASP-313, and PRO-340. Therefore, the immunosuppressive activity of 2 is possibly, at least in part, mediated via CaN/NFAT signaling pathway-regulated Con A-stimulated activation of splenocytes (Figure 7), highlighting its potential for use as an effective noncytotoxic natural immunosuppressant.
Splenocytes were treated as described in the RT–qPCR section, and then the IL-2 levels in the obtained culture supernatants were measured using an enzyme-linked immunosorbent assay (ELISA) kit, according to the manufacturer’s instructions. Cytokine standard curves were used to calculate the amount of IL-2, and the absorbance of each well was read at OD450 using an ELISA reader.
In general terms: An ELISA detects its analyte on a solid surface through an enzyme-linked reagent.

For the next data set, the system named is NFAT1 translocation. The data set is described as follows: Immunofluorescence of NFAT1 nuclear translocation in ConA-stimulated splenocytes. In kind it is cell-based, BALB/c mice. The conditions noted are these: Con A 5 μg/mL, 48 h. How it is done: as §4
Splenocytes were seeded in a 24-well plate at a density of 5 × 10^6 cells/well, incubated with various concentrations of Compound 2 or CsA, and then activated by culturing with Con A (5 μg/mL) for 48 h. After treatment, the cells were fixed with 4% paraformaldehyde for 30 min, permeabilized in 0.5% Triton X-100 for 15 min, blocked with 5% BSA for 1 h, and then incubated overnight in the respective primary antibody; NFAT1 (D43B1) XP® Rabbit antibody was used at a 1:100 dilution in PBS. The corresponding fluorescent anti-rabbit IgG (H+L) secondary antibody was added for 1 h. […]

A further data set relates to NFAT1 dephosphorylation. Description: Western blot of ConA-stimulated NFAT1 / NFAT-P in splenocytes. In kind it is cell-based, BALB/c mice. The conditions noted are these: 50 μM. How it is done: as §4
Splenocytes were washed with PBS and lysed in PMSF lysate. After centrifugation at 12,000 rpm for 5 min, the protein concentration was determined using a BSA Protein Assay Kit. Protein lysates were separated using 10% sodium dodecyl sulfate–polyacrylamide gel electrophoresis (SDS–PAGE) and transferred to polyvinylidene difluoride (PVDF) membranes. After blocking, the membranes were incubated overnight with the respective primary antibodies against NFAT1, NFAT-P, and β-actin in 5% BSA, and the secondary antibody was horseradish peroxidase (HRP)-conjugated goat anti-rabbit IgG. […]

The next data set concerns IL-2 mRNA. Description: IL-2 mRNA expression by real-time quantitative PCR in ConA-stimulated splenocytes. In kind it is cell-based, BALB/c mice. The conditions noted are these: q-PCR, 48 h. How it is done: as §4
The obtained total RNA (2 µg) was used for cDNA synthesis with a Servicebio®RT First Strand cDNA Synthesis Kit with random primers, according to the manufacturer’s instructions. qPCR was performed ith SYBR Green qPCR Master Mix (High ROX) using ABI StepOne Plus Real-time Detection System and β-actin as internal control. […] The expression levels of genes were normalized to the expression of β-actin mRNA and analyzed using the delta-delta CT method (2^−ΔΔCT).

The subject of another data set is murine splenocytes. The data set is described as follows: Cytotoxicity / cell viability in normal splenocytes, CCK-8, 72 h. The conditions noted are these: mean ± SD (n = 7). In kind it is cell-based, BALB/c mice. How it is done:
as §1, §3

calcineurin (CN), sequence (P63098 whole entry, other chains not shown): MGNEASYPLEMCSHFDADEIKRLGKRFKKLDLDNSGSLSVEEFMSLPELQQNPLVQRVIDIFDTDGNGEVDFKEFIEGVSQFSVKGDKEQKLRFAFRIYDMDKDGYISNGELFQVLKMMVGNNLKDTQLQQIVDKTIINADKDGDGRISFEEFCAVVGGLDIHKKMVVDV

Turning to `C=C1C(C)C2C(Cc3ccccc3)NC(=O)C23C(O)C=CC(C)(O)CC(C)CC=CC3C1O` (stereo not drawn) [Compound 7, cytochalasin J], the IC50 in data set [1] (Con A 5 μg/mL, CCK-8, mean ± SD, three experiments) is > 200 µM; in [2] (LPS 10 μg/mL, CCK-8, mean ± SD, three experiments), > 200 µM.
For the molecule `C=C1C(C)C2C(Cc3ccccc3)NC(=O)C23C(O)C(O)C2C(C)=CC(C)CC4OC1C3C42` (stereo not drawn) [Compound 5, phomopchalasin B], the IC50 in data set [1] was determined as 31.2 ± 2.5 µM; in data set [2] it was 154.4 ± 0.4 µM. Also, the IC50 at 72 h in data set [3] stood at 84.4 ± 0.3 µM.
`C=C1C(C)C2C(Cc3ccccc3)NC(=O)C23C(O)C2C=C(C)CC(C)CC(O)C2C3C1O` (stereo not drawn) [Compound 4, phomopchalasin A]: the values for the IC50 in data set [1] and in data set [2] were 32.8 ± 2.4 µM and 145 ± 2.2 µM, respectively. For the same molecule, in data set [3], the IC50 at 72 h stood at 373.7 ± 3.3 µM.
Take `C=C1[C@@H](C)[C@H]2[C@H](Cc3ccccc3)NC(=O)[C@]23[C@H](OC(C)=O)/C=C/[C@@](C)(O)C(=O)[C@@H](C)C/C=C/[C@H]3[C@@H]1O` [Cytochalasin D, cytochalasin D, reference compound]: the IC50 in data set [3] is 1 µM.
`C=C1C(C)C2C(Cc3ccccc3)NC(=O)C23C(OC(C)=O)C2C=C(C)CC(C)CC(O)C2C3C1O` (stereo not drawn) [Compound 2, Phomoparagin B]: the results for the IC50 (on calcineurin (CN); in data set [1]; in [2]) were 17.9 ± 0.4 µM, 21.6 ± 1.7 µM and 78.5 ± 1.3 µM, respectively. The “IL-2 protein level (secretion)” value in the data set with IL-2 was “confirmed the effects of 2 at the IL-2 protein level”. Besides, the “Effect on Con A-stimulated translocation of NFAT1 from cytoplasm to nucleus” value with NFAT1 translocation was “blocked the Con A-stimulated translocation of NFAT1 from the cytoplasm to the nucleus in a dose-dependent manner”. For the same molecule, in [3], the IC50 at 72 h was 111.7 ± 1.1 µM. Moreover, the “Effect on ConA-stimulated dephosphorylation of NFAT” value in the data set with NFAT1 dephosphorylation is given as “strongly inhibited the dephosphorylation of NFAT”. Moreover, the “Transcription level of Con A-stimulated IL-2 mRNA” value in the data set with IL-2 mRNA is reported as “decreased with increasing concentrations of 2”.
On to `C=C1C(C)C2C(Cc3ccccc3)NC(=O)C23C=C2C=C(C)CC(C)CC(O)C2C3C1O` (stereo not drawn) [Compound 3, Phomoparagin C], for which the IC50 in data set [1] and in data set [2] was > 200 µM each time.
Turning to `C=C1C(C)C2C(Cc3ccccc3)NC(=O)C23C(=O)C=CC(C)(O)CC(C)CC=CC3C1O` (stereo not drawn) [Compound 8, fragiformin B], the IC50 in data set [1] and in data set [2] was > 200 µM throughout.
In the case of `C=C1C(C)C2C(Cc3ccccc3)NC(=O)C23C(O)C2C=C(C)CC(C)CC4OC1C3C42` (stereo not drawn) [Compound 1, Phomoparagin A], the IC50 in [1] and in data set [2] was > 200 µM throughout.
For the molecule `C=C1C(C)C2C(Cc3ccccc3)NC(=O)C23C(OC(C)=O)C=CC(C)(O)CC(C)CC=CC3C1O` (stereo not drawn) [Compound 6, cytochalasin H], the IC50 in [1] turned out to be 11.2 ± 0.3 µM; in the data set on murine splenocytes, 42.2 ± 1.7 µM; in [2], 103 ± 1.1 µM. The IC50 at 72 h in data set [3] is 42.2 ± 1.7 µM.

Source of the values: paper PMC9409992, “Immunosuppressive Cytochalasins from the Mangrove Endophytic Fungus Phomopsis asparagi DHS-48” (Marine Drugs, 2022).
